Patent US20260041620A1, “NOVEL AMINO ACID BASED SALTS, COMPOSITIONS AND METHODS FOR TREATING SKIN AND IMPROVING SKIN REJUVENATION AND LONGEVITY” (Sytheon Ltd, priority 2023, published 2026)
Where two headings read alike, the source gives them in different places.

Columns and labels:
[1] = target: T1, HDAC 8 (Homo sapiens, UniProt Q9BY41)
T1 sequence (Q9BY41 1-377): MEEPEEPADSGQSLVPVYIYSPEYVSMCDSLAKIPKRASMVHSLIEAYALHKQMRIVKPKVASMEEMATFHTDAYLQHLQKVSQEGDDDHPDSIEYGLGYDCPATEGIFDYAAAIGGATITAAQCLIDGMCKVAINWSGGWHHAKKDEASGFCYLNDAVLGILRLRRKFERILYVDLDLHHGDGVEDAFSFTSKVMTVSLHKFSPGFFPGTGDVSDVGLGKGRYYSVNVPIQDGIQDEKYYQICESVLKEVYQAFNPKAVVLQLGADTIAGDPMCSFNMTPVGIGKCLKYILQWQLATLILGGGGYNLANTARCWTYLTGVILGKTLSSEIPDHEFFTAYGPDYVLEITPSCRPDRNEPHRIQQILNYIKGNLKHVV

[2] = target: HDAC1 (Homo sapiens, UniProt Q13547); test: HDAC 1 fluorogenic assay kit
Chain of HDAC1 (Q13547 whole entry): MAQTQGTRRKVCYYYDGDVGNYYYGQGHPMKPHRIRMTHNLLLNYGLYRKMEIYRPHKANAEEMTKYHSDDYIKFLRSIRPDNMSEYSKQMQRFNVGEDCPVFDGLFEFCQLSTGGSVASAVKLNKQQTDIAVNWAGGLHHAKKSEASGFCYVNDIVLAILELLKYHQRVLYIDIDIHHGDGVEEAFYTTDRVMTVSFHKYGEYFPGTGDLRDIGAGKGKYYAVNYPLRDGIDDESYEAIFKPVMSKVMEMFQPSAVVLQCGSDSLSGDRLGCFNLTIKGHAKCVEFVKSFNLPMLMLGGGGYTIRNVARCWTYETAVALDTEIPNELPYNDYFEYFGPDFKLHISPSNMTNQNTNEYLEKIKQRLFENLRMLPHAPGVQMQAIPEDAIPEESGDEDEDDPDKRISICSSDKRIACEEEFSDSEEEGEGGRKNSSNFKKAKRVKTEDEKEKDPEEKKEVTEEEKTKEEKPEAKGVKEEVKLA

[3] = target: T2, FAAH (Homo sapiens, UniProt O00519); test: FAAH fluorescence-based inhibitory assay; format: biochemical
T2 sequence (O00519 1-579): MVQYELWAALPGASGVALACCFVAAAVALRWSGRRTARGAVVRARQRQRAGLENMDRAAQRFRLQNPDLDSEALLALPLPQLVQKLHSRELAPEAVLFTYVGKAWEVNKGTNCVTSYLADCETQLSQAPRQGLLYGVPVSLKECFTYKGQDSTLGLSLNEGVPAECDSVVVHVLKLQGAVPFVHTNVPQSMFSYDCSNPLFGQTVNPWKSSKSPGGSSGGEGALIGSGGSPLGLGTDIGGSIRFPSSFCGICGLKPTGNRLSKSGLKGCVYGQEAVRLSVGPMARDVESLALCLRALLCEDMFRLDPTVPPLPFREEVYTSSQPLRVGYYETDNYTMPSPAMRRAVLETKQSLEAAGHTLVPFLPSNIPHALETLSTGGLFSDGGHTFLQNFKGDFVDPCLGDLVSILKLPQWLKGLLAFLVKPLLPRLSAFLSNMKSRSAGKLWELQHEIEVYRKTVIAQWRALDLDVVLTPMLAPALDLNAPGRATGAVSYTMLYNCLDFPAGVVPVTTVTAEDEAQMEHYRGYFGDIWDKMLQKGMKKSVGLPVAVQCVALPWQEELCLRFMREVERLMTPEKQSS

[4] = target: HDAC 5 (Homo sapiens, UniProt Q9UQL6)
Chain of HDAC 5 (Q9UQL6 whole entry): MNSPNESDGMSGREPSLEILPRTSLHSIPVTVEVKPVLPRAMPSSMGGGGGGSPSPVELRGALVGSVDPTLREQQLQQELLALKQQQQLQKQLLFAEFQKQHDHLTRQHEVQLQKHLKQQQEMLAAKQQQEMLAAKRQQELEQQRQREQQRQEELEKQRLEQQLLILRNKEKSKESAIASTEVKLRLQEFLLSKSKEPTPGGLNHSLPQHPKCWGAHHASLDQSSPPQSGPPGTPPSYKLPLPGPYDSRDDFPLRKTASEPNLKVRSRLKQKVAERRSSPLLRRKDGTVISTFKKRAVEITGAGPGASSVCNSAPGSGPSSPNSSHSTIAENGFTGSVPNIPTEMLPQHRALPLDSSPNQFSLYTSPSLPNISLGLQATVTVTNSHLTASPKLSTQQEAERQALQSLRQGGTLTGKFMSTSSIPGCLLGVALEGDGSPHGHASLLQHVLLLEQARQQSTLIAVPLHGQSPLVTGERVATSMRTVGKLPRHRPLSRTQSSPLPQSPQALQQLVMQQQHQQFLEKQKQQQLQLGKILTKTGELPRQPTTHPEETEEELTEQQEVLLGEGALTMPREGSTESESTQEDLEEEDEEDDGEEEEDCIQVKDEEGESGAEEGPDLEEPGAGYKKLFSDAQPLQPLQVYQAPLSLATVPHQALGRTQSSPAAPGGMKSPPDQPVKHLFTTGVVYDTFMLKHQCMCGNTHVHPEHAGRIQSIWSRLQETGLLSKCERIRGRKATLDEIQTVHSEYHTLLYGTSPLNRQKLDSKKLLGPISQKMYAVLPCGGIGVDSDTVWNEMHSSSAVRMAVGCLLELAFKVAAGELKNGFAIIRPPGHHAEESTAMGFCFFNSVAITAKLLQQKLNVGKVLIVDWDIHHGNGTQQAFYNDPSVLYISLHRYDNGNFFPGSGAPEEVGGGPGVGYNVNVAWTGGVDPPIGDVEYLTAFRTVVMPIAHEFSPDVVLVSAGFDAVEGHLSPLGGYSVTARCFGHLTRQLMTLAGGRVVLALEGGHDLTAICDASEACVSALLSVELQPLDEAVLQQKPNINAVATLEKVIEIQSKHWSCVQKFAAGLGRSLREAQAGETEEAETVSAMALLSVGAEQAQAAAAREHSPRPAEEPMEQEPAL

[5] = target: T3, HDAC 11 (Homo sapiens, UniProt Q96DB2); test: HDAC 11 fluorogenic assay kit; format: biochemical
T3 construct: purchased BPS Biosciences 50687
T3 sequence (Q96DB2 1-347): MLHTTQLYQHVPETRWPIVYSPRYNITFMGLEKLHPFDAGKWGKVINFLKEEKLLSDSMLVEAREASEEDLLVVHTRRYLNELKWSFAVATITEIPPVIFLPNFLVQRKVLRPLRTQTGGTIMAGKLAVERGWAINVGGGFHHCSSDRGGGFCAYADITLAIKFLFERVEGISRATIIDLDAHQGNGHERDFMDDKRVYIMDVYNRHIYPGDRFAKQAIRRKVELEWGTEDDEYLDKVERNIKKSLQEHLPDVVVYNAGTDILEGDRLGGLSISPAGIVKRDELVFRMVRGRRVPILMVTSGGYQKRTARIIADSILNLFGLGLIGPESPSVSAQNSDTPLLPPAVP

[6] = target: HDAC2 (Homo sapiens, UniProt Q92769)
Chain of HDAC2 (Q92769 whole entry): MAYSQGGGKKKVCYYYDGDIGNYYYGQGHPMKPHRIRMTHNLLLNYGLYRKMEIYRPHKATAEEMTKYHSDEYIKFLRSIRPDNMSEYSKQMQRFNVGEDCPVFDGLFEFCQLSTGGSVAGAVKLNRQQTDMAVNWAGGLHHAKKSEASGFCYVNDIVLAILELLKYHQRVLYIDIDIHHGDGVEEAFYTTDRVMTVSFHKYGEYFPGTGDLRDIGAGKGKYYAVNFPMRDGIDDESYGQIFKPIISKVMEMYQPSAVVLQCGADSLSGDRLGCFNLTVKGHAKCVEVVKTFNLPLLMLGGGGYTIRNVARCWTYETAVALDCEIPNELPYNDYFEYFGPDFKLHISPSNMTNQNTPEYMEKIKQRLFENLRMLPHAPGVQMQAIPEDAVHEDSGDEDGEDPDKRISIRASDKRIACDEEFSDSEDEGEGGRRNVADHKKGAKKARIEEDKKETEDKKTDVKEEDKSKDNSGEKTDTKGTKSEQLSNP

[7] = target: HDAC 4 (Homo sapiens, UniProt P56524); test: HDAC 4 fluorogenic assay kit
Chain of HDAC 4 (P56524 whole entry): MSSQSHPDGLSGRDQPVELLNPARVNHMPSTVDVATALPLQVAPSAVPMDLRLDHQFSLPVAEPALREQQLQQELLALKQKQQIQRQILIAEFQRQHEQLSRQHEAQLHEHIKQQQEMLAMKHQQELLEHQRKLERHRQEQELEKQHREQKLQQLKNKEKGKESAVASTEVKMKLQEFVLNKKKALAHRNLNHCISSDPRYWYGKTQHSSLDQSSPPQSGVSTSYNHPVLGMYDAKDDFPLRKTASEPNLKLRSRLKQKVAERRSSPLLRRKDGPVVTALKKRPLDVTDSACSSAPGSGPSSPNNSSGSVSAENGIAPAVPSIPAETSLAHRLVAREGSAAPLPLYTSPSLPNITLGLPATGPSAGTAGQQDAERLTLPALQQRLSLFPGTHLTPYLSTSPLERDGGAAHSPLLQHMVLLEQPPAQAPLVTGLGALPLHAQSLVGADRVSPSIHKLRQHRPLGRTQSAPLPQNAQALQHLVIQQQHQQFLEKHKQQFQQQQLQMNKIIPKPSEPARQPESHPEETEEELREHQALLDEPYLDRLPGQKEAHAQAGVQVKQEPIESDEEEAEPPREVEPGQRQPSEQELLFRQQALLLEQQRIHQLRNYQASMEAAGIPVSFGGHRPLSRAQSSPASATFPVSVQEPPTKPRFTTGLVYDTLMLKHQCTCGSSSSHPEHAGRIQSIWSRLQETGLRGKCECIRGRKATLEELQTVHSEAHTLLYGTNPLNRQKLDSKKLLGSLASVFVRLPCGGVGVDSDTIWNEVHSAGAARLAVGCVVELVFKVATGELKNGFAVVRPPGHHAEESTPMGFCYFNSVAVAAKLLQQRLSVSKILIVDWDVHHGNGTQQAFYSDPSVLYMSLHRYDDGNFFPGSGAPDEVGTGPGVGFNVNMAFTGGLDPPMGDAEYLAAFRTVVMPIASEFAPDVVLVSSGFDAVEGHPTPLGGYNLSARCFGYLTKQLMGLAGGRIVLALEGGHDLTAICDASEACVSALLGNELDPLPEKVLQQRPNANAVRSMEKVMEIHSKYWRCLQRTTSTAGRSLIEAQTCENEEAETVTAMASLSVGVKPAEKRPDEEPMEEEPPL

[8] = target: T4, FABP-5 (Homo sapiens, UniProt Q01469); test: FABP-5 ELISA inhibitory assay; format: biochemical
T4 construct: purchased Raybiotech 268-10276-1
T4 sequence (Q01469 whole entry): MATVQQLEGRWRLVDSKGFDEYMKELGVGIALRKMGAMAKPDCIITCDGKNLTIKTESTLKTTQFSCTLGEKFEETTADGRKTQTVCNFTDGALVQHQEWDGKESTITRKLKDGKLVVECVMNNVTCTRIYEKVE

[9] = target: HDAC 9 (Homo sapiens, UniProt Q9UKV0)
Chain of HDAC 9 (Q9UKV0 whole entry): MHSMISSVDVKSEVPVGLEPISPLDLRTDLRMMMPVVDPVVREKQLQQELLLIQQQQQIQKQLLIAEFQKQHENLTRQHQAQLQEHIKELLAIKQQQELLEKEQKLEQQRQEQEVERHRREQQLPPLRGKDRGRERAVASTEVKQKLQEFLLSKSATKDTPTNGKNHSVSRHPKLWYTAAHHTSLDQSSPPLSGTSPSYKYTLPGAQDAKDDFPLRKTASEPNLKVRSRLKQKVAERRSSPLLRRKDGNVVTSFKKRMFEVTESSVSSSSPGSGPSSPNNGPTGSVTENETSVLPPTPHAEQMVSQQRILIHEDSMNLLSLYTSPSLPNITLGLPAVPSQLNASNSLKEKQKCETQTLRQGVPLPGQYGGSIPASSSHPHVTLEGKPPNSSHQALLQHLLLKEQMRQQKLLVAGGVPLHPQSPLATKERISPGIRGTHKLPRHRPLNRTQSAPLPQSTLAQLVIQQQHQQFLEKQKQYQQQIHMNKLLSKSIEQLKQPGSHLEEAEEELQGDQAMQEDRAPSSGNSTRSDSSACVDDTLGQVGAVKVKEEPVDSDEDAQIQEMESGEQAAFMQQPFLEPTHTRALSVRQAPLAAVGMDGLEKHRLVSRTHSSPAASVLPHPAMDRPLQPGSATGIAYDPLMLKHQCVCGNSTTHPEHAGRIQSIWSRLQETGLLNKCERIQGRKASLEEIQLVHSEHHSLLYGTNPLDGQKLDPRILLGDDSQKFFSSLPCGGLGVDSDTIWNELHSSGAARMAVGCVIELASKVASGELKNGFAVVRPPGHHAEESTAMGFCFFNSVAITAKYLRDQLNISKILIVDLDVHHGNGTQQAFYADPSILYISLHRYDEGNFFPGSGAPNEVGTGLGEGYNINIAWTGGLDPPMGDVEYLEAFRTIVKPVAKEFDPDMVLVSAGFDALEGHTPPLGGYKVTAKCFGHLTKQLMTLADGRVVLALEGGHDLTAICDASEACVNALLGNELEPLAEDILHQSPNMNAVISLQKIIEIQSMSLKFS

[10] = target: T5, MAGL (Homo sapiens, UniProt Q99685); test: MAGL inhibitory assay; format: biochemical
T5 construct: purchased Cayman 10007812
T5 sequence (Q99685 1-303): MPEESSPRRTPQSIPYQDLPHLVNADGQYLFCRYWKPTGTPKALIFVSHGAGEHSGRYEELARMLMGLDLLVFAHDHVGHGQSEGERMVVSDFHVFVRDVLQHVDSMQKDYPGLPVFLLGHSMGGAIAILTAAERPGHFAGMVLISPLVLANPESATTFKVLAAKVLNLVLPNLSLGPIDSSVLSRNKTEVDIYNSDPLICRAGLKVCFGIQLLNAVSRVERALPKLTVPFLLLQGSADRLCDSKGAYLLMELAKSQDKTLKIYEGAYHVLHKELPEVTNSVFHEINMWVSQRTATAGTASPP
Method: Each study was performed in duplicate and the results averaged.
The final concentration in each well was 10 μl of sample, 5.6 μM MAGL (Cayman Catalog #10007812) and 23.6 μM 2-Arachidonoyl Glycerol (Cayman catalog #62160).

For Zinc Di-lysinate [Zn dilysinate], the “HDAC 8 activity, % of water-treated controls” value (from here on “HDAC 8 activity, %”) ([1]; 5 ug/ml) was 13%, the “HDAC 8 activity, %” value ([1]; 25 ug/ml) was 13% and the “HDAC 8 activity, %” value ([1]; 50 ug/ml) was 14%. The “HDAC 8 activity, %” value ([1]; 100 ug/ml) was 13%, the “HDAC 8 activity, %” value ([1]; 200 ug/ml) was 12% and the “HDAC 1 activity, % of water-treated controls” value (“HDAC 1 activity, %” for short) ([2]; 25 ug/ml) was 52%. For the same substance, the “HDAC 1 activity, %” value ([2]; 50 ug/ml) was 44%, the “HDAC 1 activity, %” value ([2]; 100 ug/ml) was 32% and the “FAAH IC50” value [3] was 791.8 µg/mL. For the same substance, the “HDAC 5 activity, % of water-treated controls” value (shortened to “HDAC 5 activity, %”) ([4]; 25 ug/ml) was 73%, the “HDAC 5 activity, %” value ([4]; 50 ug/ml) was 52% and the “HDAC 5 activity, %” value ([4]; 100 ug/ml) was 31%. The “HDAC 5 activity, %” value ([4]; 200 ug/ml) was 14%, the “HDAC 11 activity, % of water-treated controls” value (“HDAC 11 activity, %” for short) ([5]; 25 ug/ml) was 91% and the “HDAC 11 activity, %” value ([5]; 50 ug/ml) was 84%. For the same substance, the “HDAC 11 activity, %” value ([5]; 100 ug/ml) was 47%, the “HDAC 11 activity, %” value ([5]; 200 ug/ml) was 38% and the “HDAC 2 activity, % of water-treated controls” value (“HDAC 2 activity, %” for short) ([6]; 25 ug/ml) was 12%. The “HDAC 2 activity, %” value ([6]; 50 ug/ml) was 1%, the “HDAC 2 activity, %” value ([6]; 100 ug/ml) was 1% and the “HDAC 2 activity, %” value ([6]; 200 ug/ml) was 9%. For the same substance, the “HDAC 4 activity, % of water-treated controls” value (“HDAC 4 activity, %” below) ([7]; 25 ug/ml) was 100%, the “HDAC 4 activity, %” value ([7]; 50 ug/ml) was 92% and the “HDAC 4 activity, %” value ([7]; 100 ug/ml) was 63%. For the same substance, the “FABP-5 IC50” value [8] was 3,014 μg/ml, the “HDAC 9 activity, % of water-treated controls” value (from here on “HDAC 9 activity, %”) ([9]; 5 ug/ml) was 21% and the “HDAC 9 activity, %” value ([9]; 25 ug/ml) was 18%. The “HDAC 9 activity, %” value ([9]; 50 ug/ml) was 15%, the “HDAC 9 activity, %” value ([9]; 100 ug/ml) was 15% and the “HDAC 9 activity, %” value ([9]; 200 ug/ml) was 16%. The “MAGL IC50” value [10] was 207.0 µg/mL.
